This note sets out measurements from ChEMBL document CHEMBL3045181, “Flufenerim, a novel insecticide acting on diverse insect pests: biological mode of action and biochemical aspects” (2011).

Activity calls are given as the source filed them. The rule behind the calls is not given here.

For experiment [1], the system named is Spodoptera frugiperda. Description: Insecticidal activity against Spodoptera frugiperda (fall armyworm) fed with compound pre-treated sweet corn foliage 3 hr after compound application assessed as induction of mortality on day 1 and 2 post compound application. Format: functional.
Experiment [2] deals with Spodoptera frugiperda. Description: Insecticidal activity against Spodoptera frugiperda (fall armyworm) fed with compound pre-treated sweet corn foliage 3 hr after compound application assessed as induction of mortality on day 0 post compound application. The class given is functional.
The test system of experiment [3] is Spodoptera littoralis. Description: Insecticidal activity against Spodoptera littorali first-instar stages grown on compound pre-treated cotton leaves assessed as insect mortality at 0.5 mg/L of active ingredient measured 72 hr post compound dose. Format: functional.
The subject of experiment [4] is Bemisia tabaci. Description: Insecticidal activity against adult Bemisia tabaci biotype B (sweet potato whitefly) reared on compound-pretreated cotton seedlings assessed as insect mortality at 0.5 mg/L of active ingredient measured 48 hr post compound dose. Format: functional.
For experiment [5], the system named is Spodoptera littoralis. Description: Insecticidal activity against Spodoptera littorali first-instar stages grown on compound pre-treated cotton leaves assessed as insect mortality at 16 mg/L of active ingredient measured after 14 days post dose. Format: functional.
Experiment [6] relates to Bemisia tabaci. Description: Insecticidal activity against adult Bemisia tabaci biotype B (sweet potato whitefly) reared on compound pre-treated cotton seedlings assessed as insect mortality at 20 mg/L of active ingredient measured after 7 days post dose. The class given is functional, organism-based.
The subject of experiment [7] is Myzus persicae. Description: Insecticidal activity against Myzus persicae (green peach aphid) first nymphal stages grown on compound pre-treated mustard leaves assessed as insect mortality measured 72 hr post compound dose. The class given is functional.
Experiment [8] concerns Bemisia tabaci. Description: Inhibition of oviposition of Bemisia tabaci biotype B (sweet potato whitefly) reared on cotton seedlings at 10 mg/L of active ingredient by oviposition choice assay. Format: functional, organism-based.
Experiment [9] concerns Bemisia tabaci. Description: Insecticidal activity against adult Bemisia tabaci biotype B (sweet potato whitefly) reared on cotton seedlings assessed as induction of insect mortality. The class given is functional.
Experiment [10] relates to Bemisia tabaci. Description: Insecticidal activity against adult Bemisia tabaci biotype B (sweet potato whitefly) reared on compound pre-treated cotton seedlings assessed as insect mortality at 20 mg/L of active ingredient measured up to 4 days post dose. The class given is functional.
Experiment [11] relates to Spodoptera littoralis. Description: Insecticidal activity against Spodoptera littorali first-instar stages grown on compound pre-treated cotton leaves assessed as insect mortality at 16 mg/L of active ingredient measured after 7 days post dose. The class given is functional.
For experiment [12], the system named is Bemisia tabaci. Description: Insecticidal activity against thiamethoxam-resistant adult Bemisia tabaci ActRQ-G95 reared on compound-pre-treated cotton seedlings assessed as insect mortality. Format: functional.
In experiment [13] the test system is Myzus persicae. Description: Insecticidal activity against Myzus persicae (green peach aphid) first nymphal stages grown on compound pre-treated mustard leaves assessed as insect mortality at 1 mg/L of active ingredient measured 72 hr post compound dose. Format: functional.
In experiment [14] the test system is Spodoptera littoralis. Description: Insecticidal activity against Spodoptera littorali first-instar stages grown on compound pre-treated cotton leaves assessed as insect mortality measured 72 hr post compound dose. The class given is functional.
The subject of experiment [15] is Bemisia tabaci. Description: Insecticidal activity against adult Bemisia tabaci biotype B (sweet potato whitefly) reared on compound pre-treated cotton seedlings assessed as insect mortality under out door conditions at 30 mg/L of active ingredient measured after 1 days post dose. The class given is functional.
Experiment [16] deals with Myzus persicae. Description: Insecticidal activity against Myzus persicae Fluf-RG-15 (green peach aphid) first nymphal stages exposed to 0.1 mg of active ingredient per liter of compound for 15 generations grown on compound pre-treated mustard leaves assessed as insect mortality measured 72 hr post compound dose. Format: functional.
Experiment [17] concerns Bemisia tabaci. Description: Insecticidal activity against adult Bemisia tabaci biotype B (sweet potato whitefly) reared on cotton seedlings assessed as insect mortality at 0.8 mg/L of active ingredient. The class given is functional.
The test system of experiment [18] is Spodoptera littoralis. Description: Insecticidal activity against Spodoptera littorali first-instar stages grown on compound pre-treated cotton leaves assessed as insect mortality at 6.32 mg/L of active ingredient measured 72 hr post compound dose. Format: functional.
The subject of experiment [19] is Bemisia tabaci. Description: Insecticidal activity against adult Bemisia tabaci biotype B (sweet potato whitefly) reared on compound pre-treated cotton seedlings assessed as insect mortality under out door conditions at 30 mg/L of active ingredient measured after 2 days post dose. Format: functional.
In experiment [20] the test system is Bemisia tabaci. Description: In-vivo inhibition of Bemisia tabaci (sweet potato whitefly) AChE isolated from white fly feeding on compound-pre-treated cotton leaves for 48 hr assessed as reduction in acetylthiocholine iodide hydrolysis by Ellman method based colorimetry. The class given is functional, organism-based. (DTNB colorimetry detects thiols as they appear.)

The test system of experiment [21] is Bemisia tabaci. Description: Insecticidal activity against adult Bemisia tabaci biotype B (sweet potato whitefly) exposed to 0.1 mg of active ingredient per liter of compound for 30 generations reared on compound pre-treated cotton seedlings assessed as insect mortality at 0.8 mg/L of active ingredient. Format: functional.
The target in experiment [22] is AChE2 (Bemisia tabaci) (UniProt B3SST5). Description: Inhibition of AChE in Bemisia tabaci (sweet potato whitefly) homogenates assessed as reduction in acetylthiocholine iodide hydrolysis by Ellman method based colorimetry.
Sequence of AChE2 (Bemisia tabaci) (B3SST5 as listed by the source): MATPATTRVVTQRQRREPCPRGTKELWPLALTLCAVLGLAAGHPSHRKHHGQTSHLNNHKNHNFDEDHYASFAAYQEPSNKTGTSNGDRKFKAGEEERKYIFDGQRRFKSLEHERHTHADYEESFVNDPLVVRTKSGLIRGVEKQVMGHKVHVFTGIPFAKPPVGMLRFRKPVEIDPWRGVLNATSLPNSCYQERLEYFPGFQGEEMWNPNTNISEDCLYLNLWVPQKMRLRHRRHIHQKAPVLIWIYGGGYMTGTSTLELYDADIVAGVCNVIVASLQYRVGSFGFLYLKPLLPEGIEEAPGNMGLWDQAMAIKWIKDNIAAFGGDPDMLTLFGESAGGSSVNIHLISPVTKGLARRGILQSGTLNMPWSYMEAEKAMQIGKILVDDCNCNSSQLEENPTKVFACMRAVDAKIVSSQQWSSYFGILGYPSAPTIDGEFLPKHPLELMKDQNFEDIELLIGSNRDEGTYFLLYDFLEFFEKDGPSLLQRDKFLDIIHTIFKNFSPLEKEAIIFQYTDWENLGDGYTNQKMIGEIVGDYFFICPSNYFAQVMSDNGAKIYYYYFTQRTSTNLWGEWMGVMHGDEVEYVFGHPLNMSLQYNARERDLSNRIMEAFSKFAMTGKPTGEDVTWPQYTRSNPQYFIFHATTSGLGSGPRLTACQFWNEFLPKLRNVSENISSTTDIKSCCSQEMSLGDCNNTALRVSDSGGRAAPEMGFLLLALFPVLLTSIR
For experiment [23], the system named is Spodoptera littoralis. Description: Insecticidal activity against Spodoptera littorali first-instar stages grown on compound pre-treated cotton leaves assessed as insect mortality at 16 mg/L of active ingredient measured up to 4 days post dose. The class given is functional.
Experiment [24] relates to Bemisia tabaci. Description: Inhibition of oviposition of Bemisia tabaci biotype B (sweet potato whitefly) reared on cotton seedlings at 10 mg/L of active ingredient by oviposition nonchoice assay. Format: functional, organism-based.
The test system of experiment [25] is Spodoptera littoralis. Description: Insecticidal activity against Spodoptera littorali first-instar stages grown on compound pre-treated cotton leaves assessed as insect mortality under out door conditions at 16 mg/L of active ingredient measured after 2 days post dose. The class given is functional.

As a reminder, the mortality is the percentage killed. In the case of `CNC(=O)ON=C(C)SC` [METHOMYL], the mortality in experiment [1] is recorded as 5%; in experiment [2], 50%; in [3], 6%; in experiment [4] it was 10%.

As to `CC(F)c1ncnc(NCCc2ccc(OC(F)(F)F)cc2)c1Cl` (configuration not stated) [FLUFENERIM], the mortality in [5] is 28%; in experiment [10], 80%; in [11], 55%; in experiment [3], 90%; in experiment [13] it was 90%; in experiment [15], 90%. The mortality in experiment [17] is listed as 97%; in [18], 90%; in experiment [19], 30%; in [23], 80%; in experiment [25] it was above 80%; in experiment [4] it was 94%. The result in experiment [6] was inactive. The LC50 is listed as 0.39 mgAi/L in [7]; 0.35 mgAi/L in experiment [9]; 0.41 mgAi/L in experiment [12]; 2.38 mgAi/L in experiment [14]; 0.31 mgAi/L in [16]; 2.38 mgAi/L in experiment [21]. Also, the LC90 in [7] was 1.12 mgAi/L; in experiment [9], 1.24 mgAi/L; in [12], 2.4 mgAi/L; in [16], 1.22 mgAi/L; in experiment [21], 6.32 mgAi/L. Further, the inhibition entry in experiment [8], in experiment [20], in experiment [22] and in experiment [24] was “Active” each time.
